Data from patent US12540143B2, “Methods and compositions for targeted protein degradation” (Ranok Therapeutics (Hangzhou) Co. Ltd., priority 2019, dated 2026).

How the values were obtained:
BRD4 BD1 = BRD4 BD1 (Homo sapiens, UniProt O60885); assay: Bromodomain Binding Assay; conditions: 10 μM Compound 074, read-out: Bromodomain Binding % of Control
TAF1L BD2 = molecular target: T1, TAF1L BD2 (Homo sapiens, UniProt Q8IZX4); assay: Bromodomain Binding Assay; conditions: 10 μM Compound 074, read-out: Bromodomain Binding % of Control
T1 construct: made in house; host or cells: T7 phage grown in E. coli host derived from BL21
T1 sequence (Q8IZX4 1517-1626 limits assumed): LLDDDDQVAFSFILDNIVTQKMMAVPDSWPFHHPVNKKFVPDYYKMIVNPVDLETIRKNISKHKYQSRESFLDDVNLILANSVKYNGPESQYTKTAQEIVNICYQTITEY

BRPF3 = BRPF3 (Homo sapiens, UniProt Q9ULD4); assay: Bromodomain Binding Assay; conditions: 10 μM Compound 074, read-out: Bromodomain Binding % of Control
Chain of BRPF3 (Q9ULD4 589-693 limits assumed): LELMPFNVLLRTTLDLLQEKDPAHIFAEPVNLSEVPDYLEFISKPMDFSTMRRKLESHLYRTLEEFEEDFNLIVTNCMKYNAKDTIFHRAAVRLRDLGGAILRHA

CREBBP = CREBBP (Homo sapiens, UniProt Q92793); assay: Bromodomain Binding Assay; conditions: 10 μM Compound 074, read-out: Bromodomain Binding % of Control
Chain of CREBBP (Q92793 1085-1192 limits assumed): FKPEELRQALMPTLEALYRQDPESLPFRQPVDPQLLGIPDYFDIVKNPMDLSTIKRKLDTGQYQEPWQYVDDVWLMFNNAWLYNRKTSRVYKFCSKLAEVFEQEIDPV

BRDT BD1 = BRDT BD1 (Homo sapiens, UniProt Q58F21); assay: Bromodomain Binding Assay; conditions: 10 μM Compound 074, read-out: Bromodomain Binding % of Control
BAZ2B = BAZ2B (Homo sapiens, UniProt Q9UIF8); assay: Bromodomain Binding Assay; conditions: 10 μM Compound 074, read-out: Bromodomain Binding % of Control
Chain of BAZ2B (Q9UIF8 2060-2164 limits assumed): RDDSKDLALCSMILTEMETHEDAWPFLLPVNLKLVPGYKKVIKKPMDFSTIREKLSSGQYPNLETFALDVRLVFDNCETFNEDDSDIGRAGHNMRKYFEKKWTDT

[1] = tested on: MV4-11 acute myeloid leukemia xenograft; assay: MV4-11 AML xenograft model in mice; conditions: for tumor growth inhibition (FIG. 3a): after 3 weeks of dosing
Experimental: MV4-11 cells were plated in a 96-well tissue culture plate at a density of 4,500 cells/90 μL/well and incubated at 37° C./5% CO2 for 24 hr. Cells were then treated with compounds at various concentrations (a 10-point, 3-fold serial dilution series starting at 20 μM) with a final concentration of 0.5% DMSO/well and then incubated in 37° C./5% CO2 for 72 hr. 10 μL the cell proliferation reagent CCK-8 (WST-8) was added into each well and incubated at 37° C./5% CO2 for 3-4 hr and the absorbance at 450 nm measured with an En Vision Plate Reader.
MV4-11 acute myeloid leukemia and SU-DHL-4 diffuse large B-cell lymphoma (ATCC, #CRL-2957) cells were cultured in medium supplemented with 10% fetal bovine serum at 37° C./5% CO2. 5×10^6 MV-4-11 or 1×10^7 SU-DHL-4 cells were collected and re-suspended in 0.1 mL of serum-free media with Matrigel (1:1 v/v) per mouse for subcutaneous inoculation in isoflurane anesthetized male BALB/c nude or C.B-17 scid mice, respectively (treated in accordance with AAALAC animal welfare guidelines). When the average tumor volumes reached 100-200 mm^3, tumor volume outliers were removed and the remaining animals randomly divided into groups of 6-8 with similar average tumor volumes in each group. […] The appearance and behavior of each mouse was observed and recorded daily. Body weights and tumor volumes were measured and recorded every 2-4 days and the results were expressed as group means±SEM. Pairwise statistical comparisons between groups were performed by one-way ANOVA, and p<0.05 was considered statistically significant.

SMARCA4 = molecular target: T2, SMARCA4 (Homo sapiens, UniProt P51532); assay: Bromodomain Binding Assay; conditions: 10 μM Compound 074, read-out: Bromodomain Binding % of Control
T2 construct: made in house; host or cells: T7 phage grown in E. coli host derived from BL21
T2 sequence (P51532 1453-1564 limits assumed): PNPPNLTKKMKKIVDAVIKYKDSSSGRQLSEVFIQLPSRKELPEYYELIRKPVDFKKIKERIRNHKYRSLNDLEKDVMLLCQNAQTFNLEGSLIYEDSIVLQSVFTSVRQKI

EP300 = EP300 (Homo sapiens, UniProt Q09472); assay: Bromodomain Binding Assay; conditions: 10 μM Compound 074, read-out: Bromodomain Binding % of Control
Chain of EP300 (Q09472 1049-1156 limits assumed): as the sequence (Q92793 1085-1192 limits assumed) above, with N47S, V73I, F93Y, A98S counted along it

TAF1 BD2 = molecular target: T3, TAF1 BD2 (Homo sapiens, UniProt P21675); assay: Bromodomain Binding Assay; conditions: 10 μM Compound 074, read-out: Bromodomain Binding % of Control
T3 construct: made in house; host or cells: T7 phage grown in E. coli host derived from BL21
T3 sequence (P21675 1519-1628 limits assumed): as the sequence (Q8IZX4 1517-1626 limits assumed) above, with M46V, V51M, I102V, I107L counted along it

PBRM1 BD5 = PBRM1 BD5 (Homo sapiens, UniProt Q86U86); assay: Bromodomain Binding Assay; conditions: 10 μM Compound 074, read-out: Bromodomain Binding % of Control
Chain of PBRM1 BD5 (Q86U86 653-763 limits assumed): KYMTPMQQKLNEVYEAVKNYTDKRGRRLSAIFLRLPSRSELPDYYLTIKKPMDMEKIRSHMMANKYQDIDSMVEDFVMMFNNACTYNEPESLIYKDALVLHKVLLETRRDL

BRD4 BD2 = BRD4 BD2 (Homo sapiens, UniProt O60885); assay: Bromodomain Binding Assay; conditions: 10 μM Compound 074, read-out: Bromodomain Binding % of Control
KAT2B = molecular target: T4, KAT2B (Homo sapiens, UniProt Q92831); assay: Bromodomain Binding Assay; conditions: 10 μM Compound 074, read-out: Bromodomain Binding % of Control
T4 construct: made in house; host or cells: T7 phage grown in E. coli host derived from BL21
T4 sequence (Q92831 723-827 limits assumed): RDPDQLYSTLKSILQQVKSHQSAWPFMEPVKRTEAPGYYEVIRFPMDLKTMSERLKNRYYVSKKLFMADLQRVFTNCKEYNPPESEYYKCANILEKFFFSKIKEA

BRD1 = BRD1 (Homo sapiens, UniProt O95696); assay: Bromodomain Binding Assay; conditions: 10 μM Compound 074, read-out: Bromodomain Binding % of Control
Chain of BRD1 (O95696 562-666 limits assumed): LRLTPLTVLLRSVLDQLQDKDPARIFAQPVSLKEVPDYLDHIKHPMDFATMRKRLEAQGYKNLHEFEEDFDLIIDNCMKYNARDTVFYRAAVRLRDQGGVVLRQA

BRDT BD2 = BRDT BD2 (Homo sapiens, UniProt Q58F21); assay: Bromodomain Binding Assay; conditions: 10 μM Compound 074, read-out: Bromodomain Binding % of Control
HSP90 client proteins = assay: HSP90 Client Protein Degradation Flow Cytometry Assay (summary over all clients); type: cell-based, human; conditions: ERBB2, IGF1R, EGFR and RAF1
Experimental: MV4-11 cells were plated in a 24-well tissue culture plate at a density of 350,000 cells/450 μL/well and incubated in 37° C./5% CO2 for 1 hr. Cells were then treated with compounds at various concentrations and incubated in 37° C./5% CO2 for 24 hr. Cells were harvested, washed once, counted and 200 μL of 1% paraformaldehyde/PBS was added and incubated for 15 min at room temperature. 200 μL of 1×PBS/0.4% Triton X-100 was added and incubated for 15 min at 4° C. Cells were washed three times and resuspended in 50 μL of 1×PBS/0.2% Triton X-100. 2 μL/10^6 cells of anti-BRD4 antibody (ABCAM, #128874) was added and mixed by pipetting up and down. Cells were incubated for 30 min at room temperature in the dark, washed three times and resuspended in 50 μL of 1×PBS/0.2% Triton X-100. Goat anti-rabbit IgG H&L antibody (1:2000 dilution) was added and mixed by pipetting up and down and incubated for 30 min at room temperature in the dark. Finally, cells were washed three times and resuspended in 200 μL of PBS for flow cytometric analysis.
Similar flow cytometry experiments for ERBB2 in BT-474 human breast carcinoma cells (ATCC, #HTB-20) and IGF1R, EGFR and RAF1 in HEK-293 human embryonic kidney (ATCC, #CRL-1573) were performed using anti-ERBB2 (R&D, #FAB1129P), anti-IGF1R (Cell Signaling Technology, #9750), anti-EGFR (Cell Signaling Technology, #139690) and anti-RAF1 (ABCAM, #ab181115) antibodies.

TRIM24 = molecular target: T5, TRIM24 (Homo sapiens, UniProt O15164); assay: Bromodomain Binding Assay; conditions: 10 μM Compound 074, read-out: Bromodomain Binding % of Control
T5 construct: made in house; host or cells: T7 phage grown in E. coli host derived from BL21
T5 sequence (O15164 899-1004 limits assumed): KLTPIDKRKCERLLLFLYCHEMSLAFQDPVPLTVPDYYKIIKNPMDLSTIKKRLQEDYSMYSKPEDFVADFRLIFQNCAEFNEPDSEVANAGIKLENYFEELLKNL

BRD3 BD2 = BRD3 BD2 (Homo sapiens, UniProt Q15059); assay: Bromodomain Binding Assay; conditions: 10 μM Compound 074, read-out: Bromodomain Binding % of Control
Chain of BRD3 BD2 (Q15059 306-415 limits assumed): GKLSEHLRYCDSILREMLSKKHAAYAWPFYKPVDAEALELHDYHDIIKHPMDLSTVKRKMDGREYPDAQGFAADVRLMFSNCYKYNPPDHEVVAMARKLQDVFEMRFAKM

SMARCA2 = molecular target: T6, SMARCA2 (Homo sapiens, UniProt P51531); assay: Bromodomain Binding Assay; conditions: 10 μM Compound 074, read-out: Bromodomain Binding % of Control
T6 construct: made in house; host or cells: T7 phage grown in E. coli host derived from BL21
T6 sequence (P51531 1378-1506 limits assumed): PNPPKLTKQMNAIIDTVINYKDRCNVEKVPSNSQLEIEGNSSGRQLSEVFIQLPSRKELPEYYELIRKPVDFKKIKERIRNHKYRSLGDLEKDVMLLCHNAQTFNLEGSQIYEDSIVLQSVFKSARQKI

BPTF = BPTF (Homo sapiens, UniProt Q12830); assay: Bromodomain Binding Assay; conditions: 10 μM Compound 074, read-out: Bromodomain Binding % of Control
BRD2 BD1 = BRD2 BD1 (Homo sapiens, UniProt P25440); assay: Bromodomain Binding Assay; conditions: 10 μM Compound 074, read-out: Bromodomain Binding % of Control
Chain of BRD2 BD1 (P25440 74-180 limits assumed): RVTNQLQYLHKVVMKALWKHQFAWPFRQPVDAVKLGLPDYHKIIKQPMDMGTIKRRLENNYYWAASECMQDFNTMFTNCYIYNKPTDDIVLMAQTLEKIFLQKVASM

ATAD2 = ATAD2 (Homo sapiens, UniProt Q6PL18); assay: Bromodomain Binding Assay; conditions: 10 μM Compound 074, read-out: Bromodomain Binding % of Control
Chain of ATAD2 (Q6PL18 980-1092 limits assumed): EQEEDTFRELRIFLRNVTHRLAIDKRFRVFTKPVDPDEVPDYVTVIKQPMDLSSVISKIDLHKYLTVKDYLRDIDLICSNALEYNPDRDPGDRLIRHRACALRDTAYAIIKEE

Cc1sc2c(c1C)C(c1ccc(Cl)cc1)=N[C@@H](CC(=O)N1CCC(CN3CCN(Cc4ccc(-n5c(O)nnc5-c5cc(C(C)C)c(O)cc5O)cc4)CC3)CC1)c1nnc(C)n1-2.Cl [Compound 74, (S)-2-(4-(4-chlorophenyl)-2,3,9-trimethyl-6H-thieno[3,2-f][1,2,4]triazolo[4,3-a][1,4]diazepin-6-yl)-1-(4-((4-(4-(3-(2,4-dihydroxy-5-isopropylphenyl)-5-hydroxy-4H-1,2,4-triazol-4-yl)benzyl)piperazin-1-yl)methyl)piperidin-1-yl)ethan-1-one hydrochloride]
remaining activity at 10 µM (BRD4 BD1): < 10%
remaining activity at 10 µM (TAF1L BD2): > 75%
remaining activity at 10 µM (BRPF3): > 75%
remaining activity at 10 µM (CREBBP): > 75%
remaining activity at 10 µM (BRDT BD1): < 10%
remaining activity at 10 µM (BAZ2B): > 75%
animals tumor free at the end of the study ([1]; 50 mg/kg intravenous 1×/week): 1 out of 6
tumor growth inhibition (FIG. 3a) ([1]; 50 mg/kg intravenous 1×/week): significant tumor growth inhibition
animals tumor free at the end of the study ([1]; 100 mg/kg intravenous 1×/week): 4 out of 6
tumor growth inhibition (FIG. 3a) ([1]; 100 mg/kg intravenous 1×/week): significant tumor growth inhibition
animal deaths and body weights (FIG. 3b) ([1]; any group, MV4-11 xenograft): No animal deaths or significant effects on body weights were observed
remaining activity at 10 µM (SMARCA4): > 75%
remaining activity at 10 µM (EP300): 11 to 75%
remaining activity at 10 µM (TAF1 BD2): > 75%
remaining activity at 10 µM (PBRM1 BD5): > 75%
remaining activity at 10 µM (BRD4 BD2): < 10%
remaining activity at 10 µM (KAT2B): > 75%
remaining activity at 10 µM (BRD1): > 75%
remaining activity at 10 µM (BRDT BD2): < 10%
IC50 (HSP90 client proteins): 339 to 1060 nM
remaining activity at 10 µM (TRIM24): > 75%
remaining activity at 10 µM (BRD3 BD2): < 10%
remaining activity at 10 µM (SMARCA2): > 75%
remaining activity at 10 µM (BPTF): > 75%
remaining activity at 10 µM (BRD2 BD1): < 10%
remaining activity at 10 µM (ATAD2): > 75%
